Test results reported in ChEMBL document CHEMBL5154826, “Discovery of the Clinical Candidate MAK683: An EED-Directed, Allosteric, and Selective PRC2 Inhibitor for the Treatment of Advanced Malignancies” (J Med Chem, 2022).
Converted amounts (≈) assume the structure as drawn.

Legend:
[1] = Toxicity in Wistar Han rat assessed as histological changes in liver at 30 to 400 mg/kg/day, po for 15 days by Hematoxylin and eosin staining based microscopic analysis; assay type: organism-based; settings: in vivo, 360 h, dose 30-400 mg/kg/day, time 15 day
[2] = target: T1, Alpha-2C adrenergic receptor (Homo sapiens, UniProt P18825); test: Inhibition of alpha2c adrenergic receptor (unknown origin)
T1 sequence (P18825 whole entry): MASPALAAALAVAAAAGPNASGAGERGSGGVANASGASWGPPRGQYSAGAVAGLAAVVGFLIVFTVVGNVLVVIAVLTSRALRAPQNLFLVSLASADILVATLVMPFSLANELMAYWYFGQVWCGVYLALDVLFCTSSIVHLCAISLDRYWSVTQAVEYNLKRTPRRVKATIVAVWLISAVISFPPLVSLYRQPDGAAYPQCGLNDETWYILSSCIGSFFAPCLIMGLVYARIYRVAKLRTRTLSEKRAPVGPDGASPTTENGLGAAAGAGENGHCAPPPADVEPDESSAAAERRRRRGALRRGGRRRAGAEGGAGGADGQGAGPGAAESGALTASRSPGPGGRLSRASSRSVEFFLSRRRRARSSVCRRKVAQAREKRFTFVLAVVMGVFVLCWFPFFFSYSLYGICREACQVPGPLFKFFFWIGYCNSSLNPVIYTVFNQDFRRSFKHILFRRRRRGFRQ

[3] = Drug metabolism in bile duct cannulated Wistar Han rat assessed as unmodified compound recovery in bile at 3 mg/kg, iv after 8 hrs by LC-MS/MS analysis; assay type: ADME, organism-based; settings: read-out: Drug metabolism
[4] = Drug metabolism in bile duct cannulated Wistar Han rat assessed as unmodified compound recovery in urine at 3 mg/kg, iv after 8 hrs by LC-MS/MS analysis; assay type: ADME, organism-based; settings: read-out: Drug metabolism
[5] = Drug metabolism in human liver microsomes assessed as CYP3A4 mediated M3 metabolite formation at 1 uM preincuabted for 5 mins followed by NADPH addition and measured after 20 mins by LC-MS/MS analysis; assay type: ADME, Microsome; settings: 25 min
[6] = Drug metabolism in rat liver microsomes assessed as CYP3A4 mediated M3 metabolite formation at 1 uM preincuabted for 5 mins followed by NADPH addition and measured after 20 mins by LC-MS/MS analysis; assay type: ADME, Microsome; settings: 25 min
[7] = Drug metabolism in human liver hepatocytes assessed as CYP3A4 M3 metabolite formation at 1 uM preincuabted for 5 mins followed by NADPH addition and measured after 20 mins by LC-MS/MS analysis; assay type: ADME, cell-based, Hepatocyte
[8] = Drug metabolism in rat liver hepatocytes assessed as CYP3A4 M3 metabolite formation at 1 uM preincuabted for 5 mins followed by NADPH addition and measured after 20 mins by LC-MS/MS analysis; assay type: ADME, cell-based, Hepatocyte
[9] = Toxicity in Wistar Hannover rat assessed as degeneration of cortical adrenal gland at 30 to 400 mg/kg/day, po for 15 days by Hematoxylin and eosin staining based microscopic analysis; assay type: organism-based; settings: in vivo, 360 h, DDE = dose-dependent effect, dose 30-400 mg/kg/day, time 15 day
[10] = Toxicity in Wistar Hannover rat assessed as infiltration of immune cells at 30 to 400 mg/kg/day, po for 15 days by Hematoxylin and eosin staining based microscopic analysis; assay type: organism-based; settings: in vivo, 360 h, DDE = dose-dependent effect, dose 30-400 mg/kg/day, time 15 day
[11] = Toxicity in Wistar Han rat assessed as histological changes in lung at 30 to 400 mg/kg/day,po for 15 days by Hematoxylin and eosin staining based microscopic analysis; assay type: organism-based; settings: in vivo, 360 h, dose 30-400 mg/kg/day, time 15 day
[12] = Toxicity in Wistar Han rat assessed as histological changes in kidney at 30 to 400 mg/kg/day, po for 15 days by Hematoxylin and eosin staining based microscopic analysis; assay type: organism-based; settings: in vivo, 360 h, dose 30-400 mg/kg/day, time 15 day
[13] = Inhibition of PRC2 (unknown origin) assessed as reduction in H3K27 trimethylation using H3K27Me0 peptide (21 to 44 residues) as substrate by measuring SAH formation by LC-MS analysis; design: species or system Homo sapiens
[14] = test system: KARPAS-422; test: Antiproliferative activity against human KARPAS-422 cells expressing EZH2 mutant assessed as inhibition of cell growth after 14 days by beckman coulter counting method; assay type: functional; settings: Homo sapiens, KARPAS-422, 336 h; time 14 day
[15] = Lipophilicity, logD of the compound at pH 7.4 by LC with tandem MS analysis; assay type: physicochemical; settings: buffer, read-out: logD
[16] = High throughput solubility of the compound at pH 6.8 after 16 to 24 hrs by MS/MS analysis; assay type: physicochemical; settings: buffer, time 16-24 hrs
[17] = Permeability across apical to basolateral side in human Caco-2 cells at 10 uM incubated for 2 hrs by LC/MS/MS analysis; assay type: ADME, cell-based; settings: Caco-2, read-out: permeability
[18] = Efflux ratio of apparent permeability across basolateral to apical side over apical to basolateral side in human Caco-2 cells at 10 uM incubated for 2 hrs by LC/MS/MS analysis; assay type: ADME, cell-based
[19] = Dose normalized AUC in Sprague-Dawley rat at 2 mg/kg, po; assay type: ADME, organism-based; settings: in vivo
[20] = Terminal half life in Sprague-Dawley rat at 2 mg/kg, po; assay type: ADME, organism-based; settings: in vivo, read-out: beta t1/2 (converted)
[21] = Oral bioavailability in Sprague-Dawley rat at 2 mg/kg; assay type: ADME, organism-based; settings: in vivo
[22] = target: Cytochrome P450 3A4 (Homo sapiens, UniProt P08684); test: Inhibition of CYP3A4 in human liver microsomes using midazolam as substrate incubated for 10 mins in presence of NADPH by LC-MS/MS analysis; assay type: ADME, Microsome
[23] = target: Cytochrome P450 2C9 (Homo sapiens, UniProt P11712); test: Inhibition of CYP2C9 in human liver microsomes using diclofenac as substrate incubated for 10 mins in presence of NADPH by LC-MS/MS analysis; assay type: ADME, Microsome
[24] = target: Cytochrome P450 2D6 (Homo sapiens, UniProt P10635); test: Inhibition of CYP2D6 in human liver microsomes using bufuralol as substrate incubated for 10 mins in presence of NADPH by LC-MS/MS analysis; assay type: ADME, Microsome
[25] = target: 3',5'-cyclic-AMP phosphodiesterase 4D (Homo sapiens, UniProt Q08499); test: Inhibition of human Phosphodiesterase 4D
[26] = target: T2, Alpha-2A adrenergic receptor (Homo sapiens, UniProt P08913); test: Antagonist activity against alpha2a adrenergic receptor (unknown origin); assay type: functional
T2 sequence (P08913 whole entry): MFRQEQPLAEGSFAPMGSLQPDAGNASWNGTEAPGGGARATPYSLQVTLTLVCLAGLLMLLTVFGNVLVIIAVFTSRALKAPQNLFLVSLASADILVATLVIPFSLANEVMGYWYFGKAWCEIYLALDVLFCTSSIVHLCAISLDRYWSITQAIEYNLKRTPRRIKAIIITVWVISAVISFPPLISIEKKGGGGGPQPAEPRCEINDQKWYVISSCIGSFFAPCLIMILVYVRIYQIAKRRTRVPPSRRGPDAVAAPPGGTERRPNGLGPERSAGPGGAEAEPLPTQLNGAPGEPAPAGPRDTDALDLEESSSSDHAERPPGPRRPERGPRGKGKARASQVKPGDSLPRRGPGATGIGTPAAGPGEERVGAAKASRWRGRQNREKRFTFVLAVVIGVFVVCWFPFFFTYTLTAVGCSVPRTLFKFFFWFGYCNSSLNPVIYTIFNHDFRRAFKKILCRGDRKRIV

[27] = cells; settings: Homo sapiens, G-401, 48 h
Description: Inhibition of PRC2 in human G-401 cells assessed as H3K27 methylation status incubated for 48 hrs by ELISA method

Cytochrome P450 2C9, sequence (P11712 whole entry): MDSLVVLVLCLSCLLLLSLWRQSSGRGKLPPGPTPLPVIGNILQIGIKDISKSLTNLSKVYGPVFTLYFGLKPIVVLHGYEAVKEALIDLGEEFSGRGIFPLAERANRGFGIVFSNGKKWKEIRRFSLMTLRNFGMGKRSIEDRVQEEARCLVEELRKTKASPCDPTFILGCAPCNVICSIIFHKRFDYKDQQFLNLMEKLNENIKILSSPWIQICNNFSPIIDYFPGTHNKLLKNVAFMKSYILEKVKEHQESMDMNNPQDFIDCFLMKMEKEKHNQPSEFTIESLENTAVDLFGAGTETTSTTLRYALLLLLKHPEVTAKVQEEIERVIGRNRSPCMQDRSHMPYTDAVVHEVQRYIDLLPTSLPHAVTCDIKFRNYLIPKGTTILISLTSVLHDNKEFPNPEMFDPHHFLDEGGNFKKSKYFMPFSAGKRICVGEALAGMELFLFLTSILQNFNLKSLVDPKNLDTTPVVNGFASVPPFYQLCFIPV
3',5'-cyclic-AMP phosphodiesterase 4D, sequence (Q08499 whole entry): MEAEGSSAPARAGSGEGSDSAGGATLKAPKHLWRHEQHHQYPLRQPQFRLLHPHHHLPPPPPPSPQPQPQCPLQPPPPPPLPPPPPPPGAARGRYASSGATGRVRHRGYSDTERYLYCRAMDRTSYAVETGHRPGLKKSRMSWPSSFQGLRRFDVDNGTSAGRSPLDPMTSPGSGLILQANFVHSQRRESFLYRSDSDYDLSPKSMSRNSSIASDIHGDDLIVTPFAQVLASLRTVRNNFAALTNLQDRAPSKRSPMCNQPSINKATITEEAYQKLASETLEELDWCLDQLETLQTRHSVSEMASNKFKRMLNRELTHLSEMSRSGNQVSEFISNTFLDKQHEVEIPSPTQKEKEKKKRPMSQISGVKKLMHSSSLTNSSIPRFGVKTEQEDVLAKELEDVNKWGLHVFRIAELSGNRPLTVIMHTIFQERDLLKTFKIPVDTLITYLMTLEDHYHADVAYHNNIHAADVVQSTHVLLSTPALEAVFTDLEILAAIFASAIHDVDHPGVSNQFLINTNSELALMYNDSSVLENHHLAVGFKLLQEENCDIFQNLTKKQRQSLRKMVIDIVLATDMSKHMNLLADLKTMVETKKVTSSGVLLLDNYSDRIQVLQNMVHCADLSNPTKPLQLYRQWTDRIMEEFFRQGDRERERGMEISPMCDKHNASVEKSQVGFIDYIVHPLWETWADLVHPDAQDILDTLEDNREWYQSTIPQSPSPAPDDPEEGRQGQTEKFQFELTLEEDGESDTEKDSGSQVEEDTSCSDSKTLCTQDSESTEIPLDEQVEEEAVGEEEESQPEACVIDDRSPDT
Cytochrome P450 2D6, sequence (P10635 whole entry): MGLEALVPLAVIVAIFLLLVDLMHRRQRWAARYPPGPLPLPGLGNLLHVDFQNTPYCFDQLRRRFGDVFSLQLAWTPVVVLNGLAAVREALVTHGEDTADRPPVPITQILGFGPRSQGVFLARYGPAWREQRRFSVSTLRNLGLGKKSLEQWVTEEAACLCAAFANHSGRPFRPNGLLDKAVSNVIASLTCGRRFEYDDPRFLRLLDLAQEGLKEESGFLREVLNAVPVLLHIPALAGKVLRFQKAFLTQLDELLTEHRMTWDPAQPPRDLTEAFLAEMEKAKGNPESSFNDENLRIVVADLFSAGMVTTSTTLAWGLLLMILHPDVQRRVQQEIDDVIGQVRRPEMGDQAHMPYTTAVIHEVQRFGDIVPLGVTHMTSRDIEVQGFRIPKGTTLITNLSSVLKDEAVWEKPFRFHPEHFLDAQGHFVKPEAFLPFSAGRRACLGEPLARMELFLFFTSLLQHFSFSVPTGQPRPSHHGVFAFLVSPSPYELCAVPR
Cytochrome P450 3A4, sequence (P08684 whole entry): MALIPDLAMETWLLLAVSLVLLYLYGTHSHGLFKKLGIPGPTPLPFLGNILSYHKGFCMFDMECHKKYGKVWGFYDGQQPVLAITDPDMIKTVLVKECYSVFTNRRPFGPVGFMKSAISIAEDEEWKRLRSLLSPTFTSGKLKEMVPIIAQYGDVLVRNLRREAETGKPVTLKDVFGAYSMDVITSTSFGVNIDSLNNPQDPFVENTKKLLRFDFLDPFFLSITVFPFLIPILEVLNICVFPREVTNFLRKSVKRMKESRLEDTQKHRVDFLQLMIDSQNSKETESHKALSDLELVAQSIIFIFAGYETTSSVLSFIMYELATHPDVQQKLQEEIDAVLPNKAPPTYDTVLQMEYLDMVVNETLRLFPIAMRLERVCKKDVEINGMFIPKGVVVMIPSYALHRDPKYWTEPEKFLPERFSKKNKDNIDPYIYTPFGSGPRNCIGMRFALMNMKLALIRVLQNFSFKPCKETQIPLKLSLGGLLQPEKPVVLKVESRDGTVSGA

For `CS(=O)(=O)c1ccc(-c2cnc(NCc3ccco3)n3cnnc23)cc1`, the Activity [1] was “Non-Toxic”, the IC50 [2] was 14 µM and the dose excreted at 8 h [3] was 0.5%. The dose excreted at 8 h [4] was 0.9%, the Drug metabolism [5] was “Metabolite_Detected” and the Drug metabolism [6] was “Metabolite_Detected”. For the same compound, the Drug metabolism [7] was “Metabolite_Detected”, the Drug metabolism [8] was “Metabolite_Detected” and the Activity [9] was “Dde”. The Activity [10] was “Dde”, the Activity [11] was “Non-Toxic” and the Activity [12] was “Non-Toxic”. The IC50 [13] was 22 nM, the GI50 [14] was 80 nM and the logD [15] was 1.8. The solubility [16] was 12 µM (≈ 4.43 µg/mL), the Papp A→B at 2 h, 10 µM [17] was 3 ×10⁻⁶ cm/s and the efflux ratio at 2 h, 10 µM [18] was 7.6. It also gave an AUC/dose [19] of 1948 nM·h, a half-life [20] of 96 min and a bioavailability [21] of 62%. The IC50 [22] was greater than 50 µM, the IC50 [23] was greater than 50 µM and the IC50 [24] was greater than 50 µM. It also gave an IC50 [25] of 20 µM, an IC50 [26] of 15 µM and an IC50 [27] of 220 nM.
